Data: BindingDB's records for doi:10.1016/j.ejmech.2014.01.004 (Future University, 2014)

Target: T1, Dihydrofolate reductase (Bos taurus, UniProt P00376)
T1 sequence (P00376 whole entry): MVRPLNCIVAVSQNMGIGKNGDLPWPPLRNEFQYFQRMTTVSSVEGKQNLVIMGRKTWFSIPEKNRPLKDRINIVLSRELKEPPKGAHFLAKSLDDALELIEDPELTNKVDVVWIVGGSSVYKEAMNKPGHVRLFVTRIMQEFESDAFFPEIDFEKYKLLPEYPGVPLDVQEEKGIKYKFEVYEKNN
Experiment: Inhibition of bovine liver DHFR measured for every 1 min of 10 mins

Row | IC50 | Compound
1 | 0.1 µM | COc1ccc(C=C2CCCC3C2=Nc2cc(C)c(C)cc2N=C3c2ccc(OC)cc2)cc1 (configuration not stated)
2 | 0.1 µM | Clc1cc2c(cc1Cl)N=C(c1ccc(Br)cc1)C1CCCC(=Cc3ccc(Br)cc3)C1=N2 (configuration not stated)
